The values that follow come from patent publication US20050032873A1, “3-Amino chroman and 2-amino tetralin derivatives” (Wyeth, priority 2003, published 2005).

What is called melting point is the temperature of the solid-liquid transition.

Counter-ions that a name gives are not always drawn.

On to `CCN(CCCCc1coc2ccccc12)C1COc2cccc(OC)c2C1` (stereo not shown) (as salt: hydrochloride) [Compound 22, N-[4-(1-benzofuran-3-yl)butyl]-N-ethyl-N-(5-methoxy-3,4-dihydro-2H-chromen-3-yl)amine], for which the melting point lay in the range of 152 to 154 °C. Then `CCCN(CCCc1c[nH]c2ccc(F)cc12)C1COc2cccc(OC)c2C1` (stereo not shown) (as salt: hydrochloride) [Compound 23, [3-(5-fluoro-1H-indol-3-yl)propyl]-N-(5-methoxy-chroman-3-yl)propylamine], with 117 to 120 °C. As for `CCN(CCCc1c[nH]c2ccc(F)cc12)C1COc2cccc(OC)c2C1` (stereo not shown) (as salt: hydrochloride) [Compound 31, N-ethyl-N-[3-(5-fluoro-1H-indol-3-yl)propyl]-5-methoxychroman-3-amine], the figure is 91.2 °C (dec.); as for `COc1cccc2c1CC(N(CCCc1c[nH]c3ccc(F)cc13)C1CCC1)CO2` (stereo not shown) (as salt: hydrochloride) [Compound 34, N-cyclobutyl-N-[3-(5-fluoro-1H-indol-3-yl)propyl]-5-methoxychroman-3-amine], 70.5 °C (dec.). Then `COc1cccc2c1C[C@@H](N(CCCc1c[nH]c3ccc(F)cc13)C1CCC1)CO2` (as salt: hydrochloride) [Compound 35, (3R)-N-cyclobutyl-N-[3-(5-fluoro-1H-indol-3-yl)propyl]-5-methoxy-3,4-dihydro-2H-chromen-3-amine], with 115 °C (dec.). `COc1cccc2c1CC(N(CCCCc1c[nH]c3ccc(F)cc13)C1CCC1)CO2` (stereo not shown) (as salt: hydrochloride) [Compound 36, N-cyclobutyl-N-[4-(5-fluoro-1H-indol-3-yl)butyl]-N-(5-methoxy-3,4-dihydro-2H-chromen-3-yl)amine]: the melting point is 89 °C (dec.). Then `COc1cccc2c1CC(N(CCCc1c[nH]c3ccc(F)cc13)CC1CC1)CO2` (stereo not shown) (as salt: hydrochloride) [Compound 37, N-(cyclopropylmethyl)-N-[3-(5-fluoro-1H-indol-3-yl)propyl]-N-(5-methoxy-3,4-dihydro-2H-chromen-3-yl)amine], with 114 °C (dec.); and `COc1cccc2c1CC(N(CCCc1cn(C)c3ccc(F)cc13)CC1CC1)CO2` (stereo not shown) (as salt: hydrochloride) [Compound 38, N-(cyclopropylmethyl)-N-[3-(5-fluoro-1-methyl-1H-indol-3-yl)propyl]-N-(5-methoxy-3,4-dihydro-2H-chromen-3-yl)amine], with 86 °C (dec.).

For `COc1cccc2c1CC(N(CCCc1c[nH]c3ccc(F)cc13)C1CCCC1)CO2` (stereo not shown) (as salt: hydrochloride) [Compound 39, N-cyclopentyl-N-[3-(5-fluoro-1H-indol-3-yl)propyl]-N-(5-methoxy-3,4-dihydro-2H-chromen-3-yl)amine], the melting point was 112 °C (dec.). For the compound `COc1cccc2c1CC(N(CCCc1c[nH]c3ccc(F)cc13)C(C)C)CO2` (stereo not shown) (as salt: hydrochloride) [Compound 40, N-[3-(5-fluoro-1H-indol-3-yl)propyl]-N-isopropyl-N-(5-methoxy-3,4-dihydro-2H-chromen-3-yl)amine], the melting point was 105 °C (dec.). As for `COc1cccc2c1CC(N(CCCc1c[nH]c3ccc(F)cc13)C1CC1)CO2` (stereo not shown) (as salt: hydrochloride) [Compound 41, N-cyclopropyl-N-[3-(5-fluoro-1H-indol-3-yl)propyl]-N-(5-methoxy-3,4-dihydro-2H-chromen-3-yl)amine], the figure is 115 °C (dec.). Then `COc1cccc2c1CC(N(CCCc1c[nH]c3ccc(F)cc13)CC1CCC1)CO2` (stereo not shown) (as salt: hydrochloride) [Compound 42, N-(cyclobutylmethyl)-N-[3-(5-fluoro-1H-indol-3-yl)propyl]-N-(5-methoxy-3,4-dihydro-2H-chromen-3-yl)amine], with 115 °C (dec.); and `COc1cccc2c1CC(N(CCCc1c[nH]c3ccccc13)CC1CC1)CO2` (stereo not shown) (as salt: hydrochloride) [Compound 43, N-(cyclopropylmethyl)-N-[3-(1H-indol-3-yl)propyl]-N-(5-methoxy-3,4-dihydro-2H-chromen-3-yl)amine], with 107 to 110 °C. Then `COc1cccc2c1CC(N(CCCc1c[nH]c3ccccc13)C1CCC1)CO2` (stereo not shown) (as salt: hydrochloride) [Compound 44, N-cyclobutyl-N-[3-(1H-indol-3-yl)propyl]-N-(5-methoxy-3,4-dihydro-2H-chromen-3-yl)amine], with 113 to 117 °C; and `COc1cccc2c1CC(N(CCCc1c[nH]c3ccc(C#N)cc13)CC1CC1)CO2` (stereo not shown) (as salt: hydrochloride) [Compound 45, 3-{3-[(cyclopropylmethyl)(5-methoxy-3,4-dihydro-2H-chromen-3-yl)amino]propyl}-1H-indole-5-carbonitrile], with 123 to 127 °C (dec.); and `COc1cccc2c1CC(N(CCCc1c[nH]c3ccc(C#N)cc13)C1CCC1)CO2` (stereo not shown) (as salt: hydrochloride) [Compound 46, 3-{3-[cyclobutyl(5-methoxy-3,4-dihydro-2H-chromen-3-yl)amino]propyl}-1H-indole-5-carbonitrile], with 133 to 137 °C. In the case of `CCCN(CCCc1c[nH]c2ccc(F)cc12)[C@H]1CCc2cccc(OC)c2C1` (as salt: hydrochloride) [Compound 47a, (−)-N-[3-(5-fluoro-1H-indol-3-yl)propyl]-8-methoxy-N-propyl-1,2,3,4-tetrahydronaphthalen-2-amine], the melting point is 107 °C (dec.). As for `CCCN(CCCc1c[nH]c2ccc(F)cc12)[C@@H]1CCc2cccc(OC)c2C1` (as salt: hydrochloride) [Compound 47b, (2R)-N-[3-(5-fluoro-1H-indol-3-yl)propyl]-8-methoxy-N-propyl-1,2,3,4-tetrahydronaphthalen-2-amine], the figure is 110 °C (dec.).

Take `CCCN(CCc1c[nH]c2ccc(F)cc12)C1CCc2cccc(OC)c2C1` (stereo not shown) (as salt: hydrochloride) [Compound 48, N-[2-(5-fluoro-1H-indol-3-yl)ethyl]-N-(8-methoxy-1,2,3,4-tetrahydronaphthalen-2-yl)-N-propylamine]: the melting point was 105 °C (dec.). Regarding `CCN(CCc1c[nH]c2ccc(F)cc12)C1CCc2cccc(OC)c2C1` (stereo not shown) (as salt: hydrochloride) [Compound 49, N-ethyl-N-[2-(5-fluoro-1H-indol-3-yl)ethyl]-N-(8-methoxy-1,2,3,4-tetrahydronaphthalen-2-yl)amine], the melting point is 114 °C (dec.). Then `CCCN(CCCc1c[nH]c2ccccc12)C1CCc2cccc(OC)c2C1` (stereo not shown) (as salt: hydrochloride) [Compound 50, N-[3-(1H-indol-3-yl)propyl]-8-methoxy-N-propyl-1,2,3,4-tetrahydronaphthalen-2-amine], with 108 °C (dec.); and `CCCN(CCCc1c[nH]c2ccc(F)cc12)C1CCc2c(F)ccc(OC)c2C1` (stereo not shown) (as salt: hydrochloride) [Compound 51, N-[3-(5-fluoro-1H-indol-3-yl)propyl]-N-(5-fluoro-8-methoxy-1,2,3,4-tetrahydronaphthalen-2-yl)-N-propylamine], with 107 °C (dec.); and `NC(=O)c1ccc(F)c2c1CC(N(CCCc1c[nH]c3cc(F)ccc13)CC1CC1)CO2` (stereo not shown) (as salt: hydrochloride) [Compound 52a, 3-{(cyclopropylmethyl)[3-(6-fluoro-1H-indol-3-yl)propyl]amino}-8-fluorochromane-5-carboxamide], with 123 °C (dec.).

For `NC(=O)c1ccc(F)c2c1CC(N(CCCc1c[nH]c3cc(F)ccc13)C1CCC1)CO2` (stereo not shown) (as salt: hydrochloride) [Compound 53, 3-{cyclobutyl[3-(6-fluoro-1H-indol-3-yl)propyl]amino}-8-fluorochromane-5-carboxamide], the melting point was 126 °C (dec.). As for `O=C(O)c1ccc(F)c2c1CC(N(CCCc1c[nH]c3ccc(F)cc13)C1CCC1)CO2` (stereo not shown) (as salt: hydrochloride) [Compound 56, 3-{cyclobutyl[3-(5-fluoro-1H-indol-3-yl)propyl]amino}-8-fluorochromane-5-carboxylic acid], the figure is 140 °C (dec.). Take `COC(=O)c1ccc(F)c2c1CC(NCCCCc1c[nH]c3ccc(F)cc13)CO2` (stereo not shown) (as salt: hydrochloride) [Compound 57, Methyl 8-fluoro-3-{[4-(5-fluoro-1H-indol-3-yl)butyl]amino}chromane-5-carboxylate]: the melting point was 228 °C (dec.).

For the compound `COC(=O)c1ccc(F)c2c1C[C@H](NCCCCc1c[nH]c3ccc(F)cc13)CO2` (as salt: hydrochloride) [Compound 57a, Methyl (3S)-8-fluoro-3-{[4-(5-fluoro-1H-indol-3-yl)butyl]amino}chromane-5-carboxylate], the melting point was 240 °C (dec.).

Regarding `COC(=O)c1ccc(F)c2c1C[C@@H](NCCCCc1c[nH]c3ccc(F)cc13)CO2` (as salt: hydrochloride) [Compound 57b, methyl (3R)-8-fluoro-3-{[4-(5-fluoro-1H-indol-3-yl)butyl]amino}chromane-5-carboxylate], the melting point was 240 °C (dec.). As for `COC(=O)c1ccc(F)c2c1CC(N(CCCCc1c[nH]c3ccc(F)cc13)C1CCC1)CO2` (stereo not shown) (as salt: hydrochloride) [Compound 58, Methyl 3-{cyclobutyl[4-(5-fluoro-1H-indol-3-yl)butyl]amino}-8-fluorochromane-5-carboxylate], the figure is 115 °C (dec.). As for `COC(=O)c1ccc(F)c2c1C[C@H](N(CCCCc1c[nH]c3ccc(F)cc13)C1CCC1)CO2` (as salt: hydrochloride) [Compound 58a, Methyl (3S)-3-{cyclobutyl[4-(5-fluoro-1H-indol-3-yl)butyl]amino}-8-fluorochromane-5-carboxylate], the figure is 209 °C (dec.); as for `COC(=O)c1ccc(F)c2c1C[C@@H](N(CCCCc1c[nH]c3ccc(F)cc13)C1CCC1)CO2` (as salt: hydrochloride) [Compound 58b, Methyl (3R)-3-{cyclobutyl[4-(5-fluoro-1H-indol-3-yl)butyl]amino}-8-fluorochromane-5-carboxylate], 209 °C (dec.).
